US20260256782A1, “COMBINATION THERAPIES COMPRISING MYC MODULATION” (FLAGSHIP PIONEERING INNOVATIONS V, INC., priority 2022, published 2026)
Where two headings read alike, the source gives them in different places.

Columns and labels:
Hep 3B cells = assay: Cell viability (Celltiter-Glo), lenvatinib in combination with bicistronic ZF9-MQ1_ZF3-KRAB DS; Bliss synergy (SynergyFinder 2.0); format: cell-based; settings: Homo sapiens, Hep3B, 72 h
Protocol: (§1) […] Cell viability (Celltiter-Glo) levels were assessed 72 hours after treatment. Bliss synergy scores calculated using SyngeryFinder 2.0 were used to determine combinatorial effect.
(§2) Bliss synergy scores calculated using SynergyFinder 2.0 were used to determine combinatorial effect. The degree of combination synergy, or antagonism, is quantified by comparing the observed drug combination response against the expected response, calculated using a reference model that assumes no interaction between drugs. The Bliss independence model assumes a stochastic process in which two drugs elicit their effects independently, and the expected combination effect can be calculated based on the probability of independent events. […] Bliss synergy scores plus lenvatinib for Hep 3B and SK-HEP-1 were 5.37 and 12.77.

SK-HEP-1 cells = assay: as above; format: cell-based; settings: Homo sapiens, SK-HEP1, 72 h
Protocol: as §1, §2

H1975 cells = assay: cells; settings: Homo sapiens, NCI-H1975, 72 h, read-out: IC50, growth inhibition (cell viability)
From the text: (§3) The CellTiter Glo (Promega) assay was used according to manufacturer's instructions to assess cell viability. […] Odyssey CLx Imaging System (LICOR) using near-infrared (NIR) fluorescence was used to capture and quantify the protein images.

[1] = test system: subcutaneous H1975 tumors with sensitizing EGFR mutations (L858R, T790M); assay: H1975 subcutaneous tumor model, tumor growth; parameters: species or system mice; settings: mouse, in vivo
Protocol: Tumor growth was measured throughout the experiment (FIG. 15).
The length and width of tumors were measured three times weekly. Tumor volumes were calculated as width^2×length/2. Body weights were measured daily.

[2] = test system: MYC protein in osimertinib-resistant cell lines derived from H1975 (OsimR_1.25 and OsimR_1.5); assay: MYC protein level by JESS system; format: cell-based; settings: osimertinib resistant H1975 cells, 48 hours, 1 μM osimertinib or 1 μg/ml MR-32380 in SSOP
From the text: (§4) MYC protein levels were assess using a JESS system (Protein Simple). A 12-230 kDa pre-filled plate (Protein Simple) was loaded with protein lysate, antibody mix (MYC: Cell signaling technologies, actin: Cell signaling technologies, Goat anti-rabbit of mouse secondary antibodies conjugated with HRP, or fluorescent marker), and luminol master mix. The loaded plate and capillary cartridge (Protein Simple) were then transferred to the JESS system (Protein Simple) for imaging and quantification following manufacturer's protocol.

[3] = test system: MYC protein in H1975 parental cells; assay: MYC protein level by JESS system; format: cell-based; settings: 48 hours, 1 μM osimertinib or 1 μg/ml MR-32380 in SSOP
From the text: as §4

Myc protein in PC9 cells = assay: Myc protein by Western blot, osimertinib and/or MR-32054; format: cell-based; settings: PC9, 48 h, 1 μM osimertinib and/or 0.5 μg/ml MR-32054 in SSOP LNPs, normalized to untreated
[4] = test system: osimertinib-resistant cell lines derived from H1975 (OsimR_1.25 and OsimR_1.5); assay: Cell viability (CellTiter Glo) after osimertinib or MR-32380 in osimertinib-resistant lines; format: cell-based; settings: OsimR_1.25 and OsimR_1.5, 72 hours, increasing doses
Protocol: Cell viability was assessed using the CellTiter Glo (Promega) assay used according to manufacturer's instructions.

PC9 cells = assay: Cell viability (CellTiter Glo), osimertinib with control or MR-32054; format: cell-based; settings: Homo sapiens, PC-9, 72 h; read-out: IC50, reduction of viability
From the text: as §3

Structure (SMILES): COc1cc2nccc(Oc3ccc(NC(=O)NC4CC4)c(Cl)c3)c2cc1C(N)=O [lenvatinib]
- IC50 (Hep 3B cells; ZF9-MQ1_ZF3-KRAB concentration 0 μg/mL, cell viability 72 hours after treatment, read-out: Lenvatinib IC50): 533 nM
- IC50 (Hep 3B cells; ZF9-MQ1_ZF3-KRAB concentration 0.06 μg/mL, cell viability 72 hours after treatment, read-out: Lenvatinib IC50): 309 nM
- IC50 (Hep 3B cells; ZF9-MQ1_ZF3-KRAB concentration 0.6 μg/mL, cell viability 72 hours after treatment, read-out: Lenvatinib IC50): 23 nM
- IC50 (Hep 3B cells; ZF9-MQ1_ZF3-KRAB concentration 1.0 μg/mL, cell viability 72 hours after treatment, read-out: Lenvatinib IC50): 48 nM
- IC50 (Hep 3B cells; lenvatinib without DS, read-out: half maximal inhibitory concentration (IC50) of lenvatinib): 533 nM
- IC50 (SK-HEP-1 cells; SK-HEP-1, 72 hours, lenvatinib without DS, read-out: IC50 of lenvatinib): 17700 nM
- IC50 (SK-HEP-1 cells; SK-HEP-1, ZF9-MQ1_ZF3-KRAB concentration 0 μg/mL, cell viability 72 hours after treatment, read-out: Lenvatinib IC50): 17700 nM
- IC50 (SK-HEP-1 cells; SK-HEP-1, ZF9-MQ1_ZF3-KRAB concentration 0.1 μg/mL, cell viability 72 hours after treatment, read-out: Lenvatinib IC50): 13300 nM
- IC50 (SK-HEP-1 cells; SK-HEP-1, ZF9-MQ1_ZF3-KRAB concentration 0.6 μg/mL, cell viability 72 hours after treatment, read-out: Lenvatinib IC50): 3860 nM
- IC50 (SK-HEP-1 cells; SK-HEP-1, ZF9-MQ1_ZF3-KRAB concentration 1.0 μg/mL, cell viability 72 hours after treatment, read-out: Lenvatinib IC50): 1910 nM

Structure (SMILES): CC(=O)Nc1cccc(-n2c(=O)n(C3CC3)c(=O)c3c(Nc4ccc(I)cc4F)n(C)c(=O)c(C)c32)c1 [trametinib]
- IC50 (H1975 cells): 140 nM

Structure (SMILES): C=CC(=O)Nc1cc(Nc2nccc(-c3cn(C)c4ccccc34)n2)c(OC)cc1N(C)CCN(C)C [osimertinib]
- tumor growth (tumor volume) [1]: inhibit tumor growth
- MYC protein level [2]: not affected
- MYC protein level [3]: decreased MYC protein level
- reduction of Myc protein levels (Myc protein in PC9 cells): 80%
- cell viability (sensitivity) [4]: resistant to osimertinib
- IC50 (PC9 cells): 420 nM
